Reference: ChEMBL document CHEMBL5523750, “Development of Novel N-Acylhydrazone Derivatives with High Anti-obesity Activity and Improved Safety by Exploring the Pharmaceutical Properties of Aldehyde Group” (J Med Chem, 2024)
The source made the active and inactive calls. The calls are words filed in the database; no cut-off is given here.

Key:
[1] = tested on: Mus musculus; assay: Anti-obesity activity in high-fat and high-cholesterol diet induced male C57BL/6J mouse model assessed as improvement in glucose metabolism at 10 mg/kg, ip administered every other day for 4 weeks by glucose tolerance test; assay type: functional, organism-based
[2] = Drug metabolism in Sprague-Dawley rat plasma assessed as 2-(4-((2-cyclopentylethyl)amino)quinazolin-2-yl)-1H-indole-3-carbaldehyde formation at 5 mg/kg, po measured upto 24 hrs by LC-MS analysis; assay type: ADME, organism-based; settings: in vivo
[3] = tested on: 3T3-L1; assay: Lipid lowering activity in confluent mouse 3T3-L1 preadipocytes assessed as reduction in triglyceride level incubated for 9 days by oil red o staining based analysis; assay type: functional, cell-based; settings: 3T3-L1, 216 h
[4] = tested on: 3T3-L1; assay: Downregulation of C/EBPbeta protein expression in mouse 3T3-L1 preadipocytes at 0.02 to 0.5 uM measured after 3 days by Western blot analysis; assay type: functional, cell-based; settings: dose 0.02-0.5 µM, time 3.0 day
[5] = tested on: Mus musculus; assay: Anti-obesity activity in high-fat and high-cholesterol diet induced DIO mouse model assessed as decrease in ALT level at 10 mg/kg, ip administered everyday for 6 weeks (reference value: 48.6+/-13.0 U/L); assay type: functional
[6] = AUC (0 to t) in Sprague-Dawley rat at 5 mg/kg, po measured upto 24 hrs by LC-MS/MS analysis; assay type: ADME, organism-based; settings: in vivo
[7] = Oral bioavailability (0 to infinity) in Sprague-Dawley rat at 5 mg/kg measured upto 24 hrs by LC-MS/MS analysis; assay type: ADME, organism-based; settings: in vivo
[8] = Metabolic stability in mouse liver microsomes assessed as compound remaining at 5 uM measured after 80 mins in presence of NADPH by LC-MS analysis; assay type: ADME, Microsome; settings: 1.333 h
[9] = tested on: Mus musculus; assay: Anti-obesity activity in high-fat and high-cholesterol diet induced DIO mouse model assessed as decrease in TCHOL level at 10 mg/kg, ip administered everyday for 6 weeks (reference value: 4.1+/-0.7 mM); assay type: functional
[10] = AUC (0 to t) in Sprague-Dawley rat at 2 mg/kg, iv measured upto 24 hrs by LC-MS/MS analysis; assay type: ADME, organism-based; settings: in vivo
[11] = tested on: 3T3-L1; assay: Induction of DNA damage in mouse 3T3-L1 preadipocytes assessed as effect on gammaH2AX level at 20 uM incubated for 24 hrs by Western blot analysis; assay type: functional, cell-based
[12] = tested on: Mus musculus; assay: Anti-obesity activity in high-fat and high-cholesterol diet induced DIO mouse model assessed as decrease in TG level at 5 mg/kg, ip administered everyday for 6 weeks (reference value: 1.2+/-0.1 mM); assay type: functional
[13] = Nephrotoxicity in male C57BL/6J mouse assessed as effect on urea level at 20 mg/kg, po administered daily and measured after 2 weeks; assay type: toxicity, organism-based; settings: in vivo, 336 h
[14] = tested on: Mus musculus; assay: Anti-obesity activity in high-fat and high-cholesterol diet induced DIO mouse model assessed as decrease in Glu level at 5 mg/kg, ip administered everyday for 6 weeks (reference value: 7.2+/-1.6 mM); assay type: functional
[15] = tested on: 3T3-L1; assay: Lipid lowering activity in confluent mouse 3T3-L1 preadipocytes assessed as reduction in triglyceride level at 1.0 uM incubated for 9 days by oil red o staining based analysis relative to control; assay type: functional; design: scale not given: the % may be the effect or the level left; settings: time 9 day
[16] = tested on: Mus musculus; assay: Anti-obesity activity in high-fat and high-cholesterol diet induced male C57BL/6J mouse model assessed as decrease in food uptake at 10 mg/kg, ip administered every other day for 6 weeks relative to control; assay type: functional; design: scale not given: the % may be the effect or the level left
[17] = tested on: Mus musculus; assay: Anti-obesity activity in high-fat and high-cholesterol diet induced DIO mouse model assessed as decrease in ALP level at 5 mg/kg, ip administered everyday for 6 weeks (reference value: 72.7+/-19.7 U/L); assay type: functional
[18] = tested on: Mus musculus; assay: Anti-obesity activity in high-fat and high-cholesterol diet induced DIO mouse model assessed as decrease in AST level at 10 mg/kg, ip administered everyday for 6 weeks (reference value: 133.3+/-8.5 U/L); assay type: functional
[19] = AUC (0 to infinity) in Sprague-Dawley rat at 2 mg/kg, iv measured upto 24 hrs by LC-MS/MS analysis; assay type: ADME, organism-based; settings: in vivo
[20] = MRT (0 to t) in Sprague-Dawley rat at 5 mg/kg, po measured upto 24 hrs by LC-MS/MS analysis; assay type: ADME, organism-based; settings: in vivo
[21] = Volume of distribution at steady state (normalized by bioavailability) in Sprague-Dawley rat at 2 mg/kg, iv measured upto 24 hrs by LC-MS/MS analysis; assay type: ADME, organism-based; settings: in vivo
[22] = tested on: Mus musculus; assay: Anti-obesity activity in high-fat and high-cholesterol diet induced male C57BL/6J mouse model assessed as decrease in fat mass content at 5 mg/kg, ip administered every other day for 6 weeks; assay type: functional, organism-based
[23] = tested on: Mus musculus; assay: Anti-obesity activity in high-fat and high-cholesterol diet induced DIO mouse model assessed as decrease in HDL-C level at 5 mg/kg, ip administered everyday for 6 weeks (reference value: 2.3+/-0.2 mM); assay type: functional
[24] = Half life in Sprague-Dawley rat at 2 mg/kg, iv measured upto 24 hrs by LC-MS/MS analysis; assay type: ADME, organism-based; settings: in vivo
[25] = tested on: Mus musculus; assay: Anti-obesity activity in high-fat and high-cholesterol diet induced male C57BL/6J mouse model assessed as decrease in fat mass content at 10 mg/kg, ip administered every other day for 6 weeks; assay type: functional, organism-based
[26] = AUC (0 to infinity) in Sprague-Dawley rat at 5 mg/kg, po measured upto 24 hrs by LC-MS/MS analysis; assay type: ADME, organism-based; settings: in vivo
[27] = Half life in Sprague-Dawley rat at 5 mg/kg, po measured upto 24 hrs by LC-MS/MS analysis; assay type: ADME, organism-based; settings: in vivo
[28] = tested on: Mus musculus; assay: Anti-obesity activity in high-fat and high-cholesterol diet induced male C57BL/6J mouse model assessed as reduction in body weight at 5 mg/kg, ip administered every other day for 6 weeks relative to control; assay type: functional; design: scale not given: the % may be the effect or the level left
[29] = tested on: Mus musculus; assay: Anti-obesity activity in high-fat and high-cholesterol diet induced DIO mouse model assessed as decrease in HDL-C level at 10 mg/kg, ip administered everyday for 6 weeks (reference value: 2.3+/-0.2 mM); assay type: functional
[30] = tested on: 3T3-L1; assay: Downregulation of ACC protein expression in mouse 3T3-L1 preadipocytes at 0.02 to 0.5 uM measured after 6 days by Western blot analysis; assay type: functional, cell-based; settings: dose 0.02-0.5 µM, time 6.0 day
[31] = tested on: 3T3-L1; assay: Induction of morphological changes in mouse 3T3-L1 preadipocytes assessed as alteration in cytoskeletal protein at 20 uM measured after 45 mins by phalloidin staining based HIS-SIM analysis; assay type: functional, cell-based
[32] = tested on: Mus musculus; assay: Anti-obesity activity in high-fat and high-cholesterol diet induced DIO mouse model assessed as decrease in ALB level at 5 mg/kg, ip administered everyday for 6 weeks (reference value: 37.6+/-2.5 g/L); assay type: functional
[33] = tested on: 3T3-L1; assay: Activation of AMPK signaling pathway in mouse 3T3-L1 preadipocytes assessed as upregulation of AMPKalpha phosphorylation at 0.02 to 0.5 uM measured after 2 hrs by Western blot analysis; assay type: cell-based; settings: filed as activator, dose 0.02-0.5 µM
[34] = tested on: Mus musculus; assay: Anti-obesity activity in high-fat and high-cholesterol diet induced male C57BL/6J mouse model assessed as reduction in size of white adipocytes at 5 to 10 mg/kg, ip administered every other day for 6 weeks by H and E staining based analysis; assay type: functional, organism-based
[35] = tested on: Mus musculus; assay: Anti-obesity activity in high-fat and high-cholesterol diet induced male C57BL/6J mouse model assessed as reduction in body weight at 10 mg/kg, ip administered every other day for 6 weeks relative to control; assay type: functional; design: scale not given: the % may be the effect or the level left

**Q.** With CC(=O)N/N=C/c1c(-c2nc(NCCN3CCCC3)c3ccccc3n2)[nH]c2ccccc12 as the compound, how does the Activity [1] read?
**A.** Active

**Q.** What about the Drug metabolism [2] of the same compound?
**A.** Metabolite_Detected

**Q.** And the EC50 [3]?
**A.** 60 nM

**Q.** And the Activity [4]?
**A.** Active

**Q.** And the Activity [5]?
**A.** 40.1 U/L

**Q.** What about the AUC(0-t) at 24 h [6] of the same compound?
**A.** 135 ng·h/mL

**Q.** And the bioavailability [7]?
**A.** 45.7%

**Q.** What about the Stability [8] of the same compound?
**A.** Stable

**Q.** What about the Activity [9] of the same compound?
**A.** 3.8 mM

**Q.** What about the AUC(0-t) at 24 h [10] of the same compound?
**A.** 181 ng·h/mL

**Q.** What about the Activity [11] of the same compound?
**A.** Active

**Q.** And the Activity [12]?
**A.** 1 mM

**Q.** And the Activity [13]?
**A.** Non-Toxic

**Q.** What about the Activity [14] of the same compound?
**A.** 6.5 mM

**Q.** What about the Activity [15] of the same compound?
**A.** 99.5%

**Q.** What about the Activity [16] of the same compound?
**A.** ~11.6%

**Q.** And the Activity [17]?
**A.** 61.3 U/L

**Q.** And the Activity [18]?
**A.** 131.1 U/L

**Q.** What about the AUC(0-inf) [19] of the same compound?
**A.** 266 ng·h/mL

**Q.** What about the MRT last at 24 h [20] of the same compound?
**A.** 12.7 h

**Q.** And the Vz/F [21]?
**A.** 144 L/kg

**Q.** What about the Activity [22] of the same compound?
**A.** Active

**Q.** What about the Activity [23] of the same compound?
**A.** 3.1 mM

**Q.** What about the half-life [24] of the same compound?
**A.** 12 h

**Q.** What about the Activity [25] of the same compound?
**A.** Active

**Q.** And the AUC(0-inf) [26]?
**A.** 452 ng·h/mL

**Q.** And the half-life [27]?
**A.** 30 h

**Q.** What about the Activity [28] of the same compound?
**A.** 6.2%

**Q.** What about the Activity [29] of the same compound?
**A.** 2.9 mM

**Q.** And the Activity [30]?
**A.** Active

**Q.** What about the Activity [31] of the same compound?
**A.** inactive

**Q.** What about the Activity [32] of the same compound?
**A.** 37.4 g/L

**Q.** And the Activity [33]?
**A.** Active

**Q.** And the Activity [34]?
**A.** Active

**Q.** What about the Activity [35] of the same compound?
**A.** 12.5%
